Results taken from patent publication US20240131046A1, “ANTI-VIRAL AGENT” (NATIONAL UNIVERSITY CORPORATION HOKKAIDO UNIVERSITY, priority 2021, published 2024).

Tested on: SARS-CoV-2 (strain WK-521) and various variants thereof
Format: cell-based

## Nc1ncnc2c1c(CO)cn2[C@@H]1O[C@H](CO)[C@@H](O)[C@H]1O [HUP1108, 5-hydroxymethyltubercidin]
  virus amount released from infected cells / antiviral activity against variant strains: has antiviral activity against various variant strains of SARS-CoV-2
